Here are results for 16 compounds from patent US20260193238A1, “PHARMACEUTICAL COMPOUNDS AS PARP7 AND/OR PARP1 INHIBITORS” (Duke Street Bio Limited, priority 2022, published 2026).

SMILES strings stand for the structures.

The term IC50 denotes the concentration that inhibits the measured activity by half.

The first experiment deals with PARP1 over PARP2.
Assay: not given
The following applies: PARP1 inhibitor and trapper; cited from earlier work.
For `CCc1cc2ncc(CN3CCN(c4ccc(C(=O)NC)nc4)CC3)cc2[nH]c1=O` [AZD5305], the “selectivity over PARP2” value is given as 500 fold.

In another experiment the target is PARP1 (Homo sapiens, UniProt P09874). Description: PARP1 biochemical DELFIA assay (auto-PARylation). The following applies: Table 1.
PARP1, sequence (P09874 whole entry): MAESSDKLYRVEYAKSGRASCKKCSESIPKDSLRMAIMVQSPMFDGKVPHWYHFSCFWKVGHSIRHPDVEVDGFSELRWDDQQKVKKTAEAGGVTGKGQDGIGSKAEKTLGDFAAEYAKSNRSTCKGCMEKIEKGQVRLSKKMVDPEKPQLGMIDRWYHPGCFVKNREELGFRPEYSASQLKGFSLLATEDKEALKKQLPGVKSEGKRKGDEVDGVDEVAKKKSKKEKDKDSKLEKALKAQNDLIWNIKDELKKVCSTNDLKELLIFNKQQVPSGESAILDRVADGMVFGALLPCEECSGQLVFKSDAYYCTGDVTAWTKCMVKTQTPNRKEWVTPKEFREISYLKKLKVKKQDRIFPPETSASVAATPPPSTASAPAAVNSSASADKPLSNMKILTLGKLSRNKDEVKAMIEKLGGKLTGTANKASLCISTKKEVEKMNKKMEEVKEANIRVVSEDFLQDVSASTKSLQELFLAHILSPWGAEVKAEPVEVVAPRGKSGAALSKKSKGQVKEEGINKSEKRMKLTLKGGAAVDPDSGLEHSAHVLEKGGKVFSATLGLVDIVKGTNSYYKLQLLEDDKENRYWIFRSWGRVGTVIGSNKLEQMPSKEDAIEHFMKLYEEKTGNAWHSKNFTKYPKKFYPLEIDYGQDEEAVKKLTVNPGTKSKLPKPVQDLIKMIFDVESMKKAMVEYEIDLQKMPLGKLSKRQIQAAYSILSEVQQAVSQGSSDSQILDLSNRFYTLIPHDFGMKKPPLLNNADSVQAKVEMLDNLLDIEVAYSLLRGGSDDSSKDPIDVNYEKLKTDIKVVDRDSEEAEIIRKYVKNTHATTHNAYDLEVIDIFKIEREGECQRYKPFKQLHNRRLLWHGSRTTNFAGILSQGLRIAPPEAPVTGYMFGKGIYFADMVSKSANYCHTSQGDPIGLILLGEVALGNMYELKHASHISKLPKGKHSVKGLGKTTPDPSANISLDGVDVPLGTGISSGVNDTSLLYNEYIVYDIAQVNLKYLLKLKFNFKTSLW
Procedure: Prior to assay, wells were washed 3×5 min in coating wash buffer.
% data was fitted to a non-linear regression equation (log inhibitor vs response-variable slope 4-parameters) to obtain IC50 values.
`O=C(CCC1CCN(c2ncc(C(F)(F)F)cn2)CC1)N1CCCC(c2cc(C(F)(F)F)c(=O)[nH]n2)C1` (single isomer, unassigned) [Compound 4a] yielded a half-maximal inhibitory concentration (IC50) of 100 to 1000 nM. Turning to `O=C(CCN1CCCC(c2cc(C(F)(F)F)c(=O)[nH]n2)C1)N1CCN(c2ncc(Cl)cn2)CC1` (racemic) [Compound 20rac], the IC50 was 100 to 1000 nM. As to `O=C(CN1CCCC(c2cc(C(F)(F)F)c(=O)[nH]n2)C1)N1CCN(c2ncc(C(F)(F)F)cn2)CC1` (single isomer, unassigned) [Compound 14b], the 50% inhibitory concentration (IC50) lay within 100 to 1000 nM. Consider `O=C(CCN1CCCCC(c2cc(C(F)(F)F)c(=O)[nH]n2)C1)N1CCN(c2ncc(C(F)(F)F)cn2)CC1` (racemic) [Compound 12rac], for which the IC50 is 100 to 1000 nM.

Take `CCc1cc(C2CCCN(CCC(=O)N3CCN(c4ncc(C(F)(F)F)cn4)CC3)C2)c[nH]c1=O` (racemic) [Compound 22rac, 3-ethyl-5-(1-(3-oxo-3-(4-(5-(trifluoromethyl)pyrimidin-2-yl)piperazin-1-yl)propyl)piperidin-3-yl)pyridin-2(1H)-one]: the IC50 lay within 100 to 1000 nM.

In the case of `O=C(CCN1CCCCC1c1cc(C(F)(F)F)c(=O)[nH]n1)N1CCN(c2ncc(C(F)(F)F)cn2)CC1` (racemic) [Compound 21rac], the IC50 lay within 10 to 100 nM.

Still in this experiment, the particulars now being: Table 1A.
In the case of `O=C(CN1CCCC1c1cc(C(F)(F)F)c(=O)[nH]n1)N1CCN(c2ncc(F)cc2F)CC1` (single isomer, unassigned) [Compound 83b], the half-maximal inhibitory concentration (IC50) is above 10000 nM. Turning to `O=C(CN1CCOCC1c1cc(C(F)(F)F)c(=O)[nH]n1)N1CCN(c2ncc(C(F)(F)F)cn2)CC1` (single isomer, unassigned) [Compound 88b], the half-inhibitory concentration (IC50) lay within 100 to 1000 nM. On the same count and under the same terms, the figure for `CN(c1ncc(C(F)(F)F)cn1)C1CN(C(=O)CN2CCCC2c2cc(C(F)(F)F)c(=O)[nH]n2)C1` (single isomer, unassigned) [Compound 127b] is 1000 to 10000 nM. Consider `N#Cc1ccc(N2CCN(C(=O)CN3CCCC3c3cc(C(F)(F)F)c(=O)[nH]n3)CC2)nc1` (racemic) [Compound 47rac], for which the half-inhibitory concentration (IC50) fell in the range of 10 to 100 nM. Still for that read-out and setting: in the case of `N#Cc1cc(C2CCCN2CC(=O)N2CCN(c3nc4cc(Cl)ccc4o3)CC2)n[nH]c1=O` (single isomer, unassigned) [Compound 121a] it was 100 to 1000 nM; in that of `CNC(=O)c1ccc(N2CCN(C(=O)CN3CCOCC3c3cc(C(F)(F)F)c(=O)[nH]n3)CC2)cn1` (single isomer, unassigned) [Compound 90b], 1000 to 10000 nM.

Compound `N#Cc1cc(C2CCCN2CC(=O)N2CCN(c3ncc(C(F)(F)F)cn3)CC2)n[nH]c1=O` (single isomer, unassigned) [Compound 98b, 3-oxo-6-(1-(2-oxo-2-(4-(5-(trifluoromethyl)pyrimidin-2-yl)piperazin-1-yl)ethyl)pyrrolidin-2-yl)-2,3-dihydropyridazine-4-carbonitrile] yielded an IC50 of 1000 to 10000 nM.

The compound `O=C(CN1Cc2ccccc2C1c1cc(C(F)(F)F)c(=O)[nH]n1)N1CCN(c2ncc(C(F)(F)F)cn2)CC1` (single isomer, unassigned) [Compound 104b, 6-(2-(2-oxo-2-(4-(5-(trifluoromethyl)pyrimidin-2-yl)piperazin-1-yl)ethyl)isoindolin-1-yl)-4-(trifluoromethyl)pyridazin-3(2H)-one] showed a half-inhibitory concentration (IC50) of 1000 to 10000 nM. The compound `O=C(CN1CCCC1c1cc(C(F)(F)F)c(=O)[nH]n1)N1CCN(c2ccc(C(F)F)cn2)CC1` (single isomer, unassigned) [Compound 126a] displayed an IC50 of 10 to 100 nM.
